Experimental data taken from paper PMC8344021, “Discovery of Small Molecule Bak Activator for Lung Cancer Therapy” (Theranostics, 2021).

Legend:
[1] = tested on: mitochondria isolated from A549 cells; assay: Cyt c release from isolated mitochondria; type: biochemical, human; conditions: 1 μM, 30 min, 30 °C
Description: Figure 3 Bak is required for BKA-073 induction of mitochondrial priming, Cyt c release and apoptotic cell death. (A) Levels of Bak and Bax were analyzed by Western blot in parental, Bak ^-/-, Bax ^-/- or Bax/Bak double-knockout (DKO) A549 cells. (B-C) Parental, Bak ^-/-, Bax ^-/- or DKO A549 cells were treated with BKA-073 (1μM) for 16h or 72h, followed by analysis of dynamic BH3 profiling (B) or apoptotic cell death (C), respectively. Data represent the mean ± SD, n = 3 per group. ***P < 0.001, by 2-tailed t test. (D) Parental, Bak ^-/-, Bax ^-/- or DKO A549 cells were treated with BKA-073 (1μM) for 24 h. Mitochondrial and cytosolic fractions were isolated. Levels of Cyt c in these two fractions were analyzed by western blot. (E) Mitochondria were isolated from parental, Bak ^-/-, Bax ^-/- or DKO A549 cells. The isolated mitochondria were then treated with BKA-073 (1μM) in mitochondrial buffer for 30 min at 30 °C. After centrifugation, Cyt c in supernatant fraction (i.e. Cyt c release) and Cyt c in mitochondrial pellet were analyzed by western blot.
To further test whether Bak is required for BKA-073 induction of Cyt c release, A549 parental, Bak^-/-, Bax^-/- and DKO cells were treated with BKA-073 (1 μM) for 24h, followed by analysis of Cyt c release from mitochondria. […] After centrifugation at 13000 g for 5 min, Cyt c in the supernatant (i.e., Cyt c release) was analyzed by Western blot.

[2] = tested on: NSCLC and SCLC cell lines; assay: Apoptotic cell death in panel of NSCLC and SCLC cell lines; type: cell-based, human; conditions: 1μM
Description: Figure 1 Discovery of small molecule BKA-073 as a lead compound that targets BH3 domain of Bak and induces mitochondrial priming and apoptosis in lung cancer cells. (A) Schematic illustration of screening strategies used to identify the lead Bak agonist BKA-073 and its chemical structure. (B) Structural modeling of BKA-073 in the BH3 domain binding pocket of Bak protein. (C) Expression levels of Bak were analyzed by Western blot in NSCLC and SCLC cell lines. (D-E) A panel of NSCLC and SCLC cell lines were treated with BKA-073 (1μM) for 16h or 72h, followed by analysis of dynamic BH3 profiling (D) or apoptotic cell death (E), respectively. Data represent the mean ± SD, n = 3 per group. **P < 0.01, ***P < 0.001, by 2-tailed t test. TEXT PRINTED IN THE PICTURE: (A) BKA-073: MW: 361.87 […]
Supplemental Materials and Methods
Small molecule NSC14073 (BKA-073) was obtained from the Drug Synthesis and Chemistry Branch, Developmental Therapeutic Program, Division of Cancer Treatment and Diagnosis, National Cancer Institute (NCI, Bethesda, MD) (http://dtp.nci.nih.gov/RequestCompounds).
Venetoclax (ABT-199, 205807) was purchased from MedKoo Biosciences (Morrisville, NC).
Antibodies including PARP (sc-8007), Bax (sc-7480), Mcl-1 (sc-12756), cytochrome c (sc-13156) and actin (sc-47778) were purchased from Santa Cruz (Santa Cruz, CA). Bcl2 antibody (05-826) was obtained from Calbiochem (Darmstadt, Germany). Bcl-XL (ab32370), Bak (ab32371) and Bax (ab104156) antibodies were purchased from Abcam (Cambridge, MA). […]
Cells were seeded at a density of 5 × 103 per well in 96-well plates and allowed to grow overnight. After treatment with BKA-073, the surviving cell fraction was determined using the sulforhodamine B (SRB) assay as described. Optical density (OD) was measured at 510nm in a microplate reader (Synergy H1, BioTek®, Winooski, VT). […]
Apoptotic cells were detected using Annexin-V Apoptosis Detection Kit (556547, BD Biosciences, San Jose, CA) according to the manufacturer’s instructions. […]

COc1ccc2nc3ccccc3c(NCCNCC(C)O)c2c1 (centres unmarked) [BKA-073]
Cyt c release from isolated mitochondria ([1]; mitochondria from A549 Bax-/- cells): induced Cyt c release
Cyt c release from isolated mitochondria ([1]; mitochondria from A549 parental cells): induced Cyt c release
induction of apoptosis ([2]; 72h): potently induced
sensitivity (mitochondrial priming and apoptosis), lines with relatively higher Bak ([2]; A549, H157, H1975, DMS53, DMS114, H209, H526): more sensitive
sensitivity (mitochondrial priming and apoptosis), lines with relatively lower Bak ([2]; Calu-1, H69, H128, H146): less sensitive
